Results published in ChEMBL document CHEMBL5120793, “A Natural Plant Ingredient, Menthone, Regulates T Cell Subtypes and Lowers Pro-inflammatory Cytokines of Rheumatoid Arthritis” (J Nat Prod, 2022).
Activity calls are given as the source filed them.

Assays:
[1] = tested on: Mus musculus; test: Antiarthritic activity against collagen-II induced rheumatoid arthritis DBA-1 mouse blood CD4+ T cells assessed as reduction in Th17 cells differentiation at 100 mg/kg administered for 14 days on day 60 to day 74 post-immunization by flow cytometry analysis; assay type: functional, organism-based; conditions: T-cell, time 14.0 day
[2] = tested on: Mus musculus; test: Antiarthritic activity against collagen-II induced rheumatoid arthritis DBA-1 mouse model assessed as reduction in serum IL-6 level at 100 mg/kg administered for 14 days on day 60 to day 74 post-immunization by ELISA; assay type: functional, organism-based; conditions: time 14.0 day
[3] = tested on: CD4+ve Th; test: Antiinflammatory activity against PMA induced DBA-1 mouse spleen CD4+ve Th cells assessed as reduction in IL-1beta mRNA level at 50 to 100 uM incubated for 24 hrs by RT-qPCR assay; assay type: functional, cell-based; conditions: dose 50-100 µM
[4] = tested on: Mus musculus; test: Antiarthritic activity against collagen-II induced rheumatoid arthritis DBA-1 mouse blood CD4+ T cells assessed as increase in Foxp3 mRNA level at 100 mg/kg administered for 14 days on day 60 to day 74 post-immunization by RT-qPCR assay; assay type: functional, organism-based; conditions: T-cell, time 14.0 day
[5] = tested on: CD4+ve Th; test: Antiinflammatory activity against PMA induced DBA-1 mouse spleen CD4+ve Th cells assessed as reduction in IL-6 mRNA level at 50 to 100 uM incubated for 24 hrs by RT-qPCR assay; assay type: functional, cell-based; conditions: dose 50-100 µM
[6] = tested on: CD4+ve Th; test: Antiinflammatory activity against PMA induced DBA-1 mouse spleen CD4+ve Th cells assessed as reduction in TNF-alpha mRNA level at 50 to 100 uM incubated for 24 hrs by RT-qPCR assay; assay type: functional, cell-based; conditions: dose 50-100 µM
[7] = tested on: Mus musculus; test: Antiarthritic activity against collagen-II induced rheumatoid arthritis DBA-1 mouse model assessed as reduction in blood IL-1beta mRNA level at 100 mg/kg administered for 14 days on day 60 to day 74 post-immunization by RT-qPCR assay; assay type: functional, organism-based; conditions: time 14.0 day
[8] = tested on: Mus musculus; test: Antiarthritic activity against collagen-II induced rheumatoid arthritis DBA-1 mouse spleen CD4+ T cells assessed as reduction in RORgammaT mRNA level at 100 mg/kg administered for 14 days on day 60 to day 74 post-immunization by RT-qPCR assay; assay type: functional, organism-based; conditions: T-cell, time 14.0 day
[9] = tested on: Mus musculus; test: Antiarthritic activity against collagen-II induced rheumatoid arthritis DBA-1 mouse model assessed as reduction in blood IL-6 mRNA level at 100 mg/kg administered for 14 days on day 60 to day 74 post-immunization by RT-qPCR assay; assay type: functional, organism-based; conditions: time 14.0 day
[10] = tested on: Mus musculus; test: Antiarthritic activity against collagen-II induced rheumatoid arthritis DBA-1 mouse model assessed as reduction in clinical score at 100 mg/kg administered for 14 days on day 60 to day 74 post-immunization; assay type: functional, organism-based; conditions: time 14.0 day
[11] = tested on: Mus musculus; test: Antiarthritic activity against collagen-II induced rheumatoid arthritis DBA-1 mouse blood CD4+ T cells assessed as reduction in Th1 cells differentiation at 100 mg/kg administered for 14 days on day 60 to day 74 post-immunization by flow cytometry analysis; assay type: functional, organism-based; conditions: T-cell, time 14.0 day
[12] = tested on: Mus musculus; test: Antiarthritic activity against collagen-II induced rheumatoid arthritis DBA-1 mouse model assessed as reduction in serum IL-1beta level at 100 mg/kg administered for 14 days on day 60 to day 74 post-immunization by ELISA; assay type: functional, organism-based; conditions: time 14.0 day
[13] = tested on: Mus musculus; test: Antiarthritic activity against collagen-II induced rheumatoid arthritis DBA-1 mouse spleen CD4+ T cells assessed as increase in GATA3 mRNA level at 100 mg/kg administered for 14 days on day 60 to day 74 post-immunization by RT-qPCR assay; assay type: functional, organism-based; conditions: T-cell, time 14.0 day
[14] = tested on: Mus musculus; test: Antiarthritic activity against collagen-II induced rheumatoid arthritis DBA-1 mouse spleen CD4+ T cells assessed as reduction in Th1 cells differentiation at 100 mg/kg administered for 14 days on day 60 to day 74 post-immunization by flow cytometry analysis; assay type: functional, organism-based; conditions: T-cell, time 14.0 day
[15] = tested on: Mus musculus; test: Antiarthritic activity against collagen-II induced rheumatoid arthritis DBA-1 mouse model assessed as reduction in IL-17 protein level at 100 mg/kg administered for 14 days on day 60 to day 74 post-immunization by immunohistochemistry analysis; assay type: functional, organism-based; conditions: time 14.0 day
[16] = tested on: Mus musculus; test: Antiarthritic activity against collagen-II induced rheumatoid arthritis DBA-1 mouse blood CD4+ T cells assessed as reduction in RORgammaT mRNA level at 100 mg/kg administered for 14 days on day 60 to day 74 post-immunization by RT-qPCR assay; assay type: functional, organism-based; conditions: T-cell, time 14.0 day
[17] = tested on: Mus musculus; test: Antiarthritic activity against collagen-II induced rheumatoid arthritis DBA-1 mouse blood CD4+ T cells assessed as reduction in T-bet mRNA level at 100 mg/kg administered for 14 days on day 60 to day 74 post-immunization by RT-qPCR assay; assay type: functional, organism-based; conditions: T-cell, time 14.0 day
[18] = tested on: Mus musculus; test: Antiarthritic activity against collagen-II induced rheumatoid arthritis DBA-1 mouse model assessed as reduction in serum TNF-alpha level at 100 mg/kg administered for 14 days on day 60 to day 74 post-immunization by ELISA; assay type: functional, organism-based; conditions: time 14.0 day
[19] = tested on: Mus musculus; test: Antiarthritic activity against collagen-II induced rheumatoid arthritis DBA-1 mouse model assessed as reduction in TNF-alpha protein level at 100 mg/kg administered for 14 days on day 60 to day 74 post-immunization by immunohistochemistry analysis; assay type: functional, organism-based; conditions: time 14.0 day
[20] = tested on: Mus musculus; test: Antiarthritic activity against collagen-II induced rheumatoid arthritis DBA-1 mouse blood CD4+ T cells assessed as increase in GATA3 mRNA level at 100 mg/kg administered for 14 days on day 60 to day 74 post-immunization by RT-qPCR assay; assay type: functional, organism-based; conditions: T-cell, time 14.0 day
[21] = tested on: Mus musculus; test: Antiarthritic activity against collagen-II induced rheumatoid arthritis DBA-1 mouse model assessed as reduction in blood TNF-alpha mRNA level at 100 mg/kg administered for 14 days on day 60 to day 74 post-immunization by RT-qPCR assay; assay type: functional, organism-based; conditions: time 14.0 day
[22] = tested on: Mus musculus; test: Antiarthritic activity against collagen-II induced rheumatoid arthritis DBA-1 mouse spleen CD4+ T cells assessed as increase in Foxp3 mRNA level at 100 mg/kg administered for 14 days on day 60 to day 74 post-immunization by RT-qPCR assay; assay type: functional, organism-based; conditions: T-cell, time 14.0 day
[23] = tested on: Mus musculus; test: Antiarthritic activity against collagen-II induced rheumatoid arthritis DBA-1 mouse model assessed as reduction in damage of articular cartilage at 100 mg/kg administered for 14 days on day 60 to day 74 post-immunization; assay type: functional, organism-based; conditions: time 14.0 day
[24] = tested on: Mus musculus; test: Antiarthritic activity against collagen-II induced rheumatoid arthritis DBA-1 mouse model assessed as reduction in synovial hyperplasia at 100 mg/kg administered for 14 days on day 60 to day 74 post-immunization; assay type: functional, organism-based; conditions: time 14.0 day
[25] = tested on: Mus musculus; test: Antiarthritic activity against collagen-II induced rheumatoid arthritis DBA-1 mouse spleen CD4+ T cells assessed as reduction in T-bet mRNA level at 100 mg/kg administered for 14 days on day 60 to day 74 post-immunization by RT-qPCR assay; assay type: functional, organism-based; conditions: T-cell, time 14.0 day
[26] = tested on: Mus musculus; test: Antiarthritic activity against collagen-II induced rheumatoid arthritis DBA-1 mouse model assessed as reduction in IL-1beta protein level at 100 mg/kg administered for 14 days on day 60 to day 74 post-immunization by immunohistochemistry analysis; assay type: functional, organism-based; conditions: time 14.0 day
[27] = tested on: Mus musculus; test: Antiarthritic activity against collagen-II induced rheumatoid arthritis DBA-1 mouse spleen CD4+ T cells assessed as reduction in Th17 cells differentiation at 100 mg/kg administered for 14 days on day 60 to day 74 post-immunization by flow cytometry analysis; assay type: functional, organism-based; conditions: T-cell, time 14.0 day

Measured: Activity

CC(C)[C@@H]1CC[C@@H](C)CC1=O
active: [1] | [2] | [3] | [4] | [5] | [6] | [7] | [8] | [9] | [10] | [11] | [12] | [13] | [14] | [15] | [16] | [17] | [18] | [19] | [20] | [21] | [22] | [23] | [24] | [25] | [26] | [27]
